Molecular target: Substance-P receptor (Homo sapiens, UniProt P25103)
Assay: Affinity for human Tachykinin receptor 1 expressed in CHO cells
Format: cell-based

Chain of Substance-P receptor (P25103 whole entry): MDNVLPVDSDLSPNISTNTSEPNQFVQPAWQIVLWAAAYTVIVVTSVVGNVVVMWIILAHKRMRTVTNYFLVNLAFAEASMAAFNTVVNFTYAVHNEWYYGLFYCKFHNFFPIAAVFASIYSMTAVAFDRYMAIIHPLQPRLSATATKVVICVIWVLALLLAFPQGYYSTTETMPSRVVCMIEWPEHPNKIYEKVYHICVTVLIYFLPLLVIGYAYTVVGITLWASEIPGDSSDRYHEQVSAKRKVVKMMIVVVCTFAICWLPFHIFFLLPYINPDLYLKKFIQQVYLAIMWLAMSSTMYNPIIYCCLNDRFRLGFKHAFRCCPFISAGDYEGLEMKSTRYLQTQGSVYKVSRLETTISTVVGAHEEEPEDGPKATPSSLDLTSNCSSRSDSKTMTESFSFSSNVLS

SMILES: CSc1ccc(N2C(=O)NC3(CCN(C(=O)c4cc(C(F)(F)F)cc(C(F)(F)F)c4)CC3)C2=O)cc1
- Ki: 132 nM

SMILES: O=C(c1cc(C(F)(F)F)cc(C(F)(F)F)c1)N1CCC2(CC1)NC(=O)N(CCc1c[nH]c3ccccc13)C2=O
- Ki: 575 nM

SMILES: O=C1NC2(CCN(S(=O)(=O)CCc3cccc4ccccc34)CC2)C(=O)N1Cc1cc(C(F)(F)F)cc(C(F)(F)F)c1
- Ki: 74.1 nM

SMILES: CN1C(=O)N(Cc2cc(C(F)(F)F)cc(C(F)(F)F)c2)C2(CCN(C(=O)c3cccc4ccccc34)CC2)C1=O
- Ki: 457 nM

SMILES: O=C(c1cccc2ccccc12)N1CCC2(CC1)NC(=O)N(c1cc(C(F)(F)F)cc(C(F)(F)F)c1)C2=O
- Ki: 339 nM

SMILES: Cc1cc(C)c(C(=O)N2CCC3(CC2)NC(=O)N(c2cc(C(F)(F)F)cc(C(F)(F)F)c2)C3=O)c(C)c1
- Ki: 324 nM

SMILES: CN1C(=O)N(Cc2cc(C(F)(F)F)cc(C(F)(F)F)c2)C2(CCN(C(=O)CN3CCC(Cc4ccccc4)CC3)CC2)C1=O
- Ki: 3720 nM

SMILES: Cc1cccc(NC(=O)N2CCC3(CC2)NC(=O)N(Cc2cc(C(F)(F)F)cc(C(F)(F)F)c2)C3=O)c1
- Ki: 45.7 nM

SMILES: O=C(c1cc(C(F)(F)F)cc(C(F)(F)F)c1)N1CCC2(CC1)NC(=O)N(Cc1ccc3c(c1)OCO3)C2=O
- Ki: 245 nM

SMILES: O=C(c1cc(C(F)(F)F)cc(C(F)(F)F)c1)N1CCC2(CC1)NC(=O)N(Cc1cccc(-c3ccccc3)c1)C2=O
- Ki: 138 nM

SMILES: N#Cc1cccc(CN2CCC3(CC2)NC(=O)N(Cc2cc(C(F)(F)F)cc(C(F)(F)F)c2)C3=O)c1
- Ki: 107 nM

SMILES: CN1C(=O)N(Cc2cc(C(F)(F)F)cc(C(F)(F)F)c2)C2(CCN(C(=O)c3c(Cl)cccc3Cl)CC2)C1=O
- Ki: 646 nM

Source: ChEMBL document CHEMBL1135316, “Parallel solution- and solid-phase synthesis of spirohydantoin derivatives as neurokinin-1 receptor ligands” (Bioorg Med Chem Lett, 2002)
